≈ marks a conversion by molar mass, not a printed value. Read-outs that look alike come from different tables or passages of the source. Marks after values point to notes of the source that are not given here.
What was measured:
In vivo DMPK, IV dosing = settings: male, Sprague-Dawley, rat
Protocol: In vivo studies were carried out under appropriate licenses at Pharmidex (U.K.), Sygnature Discovery (U.K.), or Sai Life (India) using male Sprague-Dawley rats. […] Serial plasma samples were obtained at predetermined time points and then stored at −20 °C. Samples were then thawed, protein-precipitated with acetonitrile followed by LCMS/MS quantification.

Caco-2 permeability = type: in vitro ADME; settings: for efflux ratio: Caco-2, Table S1
[1] = target: LIMK2 (LIMK2_347–659, kinase catalytic domain) (Homo sapiens, UniProt P53671); type: biochemical
LIMK2 (LIMK2_347–659, kinase catalytic domain), sequence (P53671 326-638 limits assumed): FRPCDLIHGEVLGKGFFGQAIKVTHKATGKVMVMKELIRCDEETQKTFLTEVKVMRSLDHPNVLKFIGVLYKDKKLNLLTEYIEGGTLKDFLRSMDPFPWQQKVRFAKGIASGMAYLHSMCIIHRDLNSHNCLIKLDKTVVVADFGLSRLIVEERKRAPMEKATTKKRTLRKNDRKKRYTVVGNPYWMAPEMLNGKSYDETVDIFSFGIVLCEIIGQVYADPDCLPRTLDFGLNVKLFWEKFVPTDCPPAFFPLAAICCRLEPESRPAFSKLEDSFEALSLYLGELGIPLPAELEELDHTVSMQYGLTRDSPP

[2] = target: PAK pLIMK2 (PAK-phosphorylated LIMK2) (Homo sapiens, UniProt P53671); type: biochemical; settings: 6 nM LIMK2 + 0.2 nM PAK1 kinase domain; mean ± SEM
PAK pLIMK2 (PAK-phosphorylated LIMK2), sequence (P53671 326-638 limits assumed): as above

[3] = target: T1, LIMK1 (NanoLuc LIMK1 kinase fusion) (Homo sapiens, UniProt P53667); type: cell-based; settings: HEK293 cells, 2 h; mean ± SEM
T1 construct: host or cells: HEK293
T1 sequence (P53667 whole entry, the tested form may be a part): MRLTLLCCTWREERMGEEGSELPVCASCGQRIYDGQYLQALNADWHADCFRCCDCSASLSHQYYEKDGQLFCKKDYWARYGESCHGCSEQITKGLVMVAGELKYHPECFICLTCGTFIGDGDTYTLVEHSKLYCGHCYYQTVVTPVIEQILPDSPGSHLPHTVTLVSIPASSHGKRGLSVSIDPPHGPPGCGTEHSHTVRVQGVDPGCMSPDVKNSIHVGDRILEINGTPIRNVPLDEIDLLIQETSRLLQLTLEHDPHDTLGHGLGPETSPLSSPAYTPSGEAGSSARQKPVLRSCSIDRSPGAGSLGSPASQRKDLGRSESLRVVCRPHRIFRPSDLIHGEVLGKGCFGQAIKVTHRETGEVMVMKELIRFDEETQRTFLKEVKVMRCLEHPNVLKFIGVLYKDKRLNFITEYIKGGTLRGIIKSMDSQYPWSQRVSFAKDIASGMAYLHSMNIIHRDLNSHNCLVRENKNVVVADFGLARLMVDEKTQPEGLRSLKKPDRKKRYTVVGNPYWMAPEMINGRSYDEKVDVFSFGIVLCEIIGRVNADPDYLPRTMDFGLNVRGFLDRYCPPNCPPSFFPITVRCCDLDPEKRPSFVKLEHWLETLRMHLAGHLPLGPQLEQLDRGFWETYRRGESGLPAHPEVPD
Protocol: (§1) HEK293 cells were resuspended in growth media following routine trypsinization, neutralization, and sedimentation techniques. Cell density was adjusted to 1 ×10^5 cells/mL for each transfection in a total of 25 mL media. The transfection mix was added directly to the cells and mixed gently by inversion. The cells were then plated into T-75 tissue culture flasks and incubated for 20 h.
(§2) Kit components were purchased from Promega (Hampshire, U.K.). […] NanoBRET Tracer #10 (27.5 μL) was diluted in 192.5 μL of DMSO for use as a positive control, which was further diluted with 880 μL of tracer dilution buffer. For negative control, 20 μL of DMSO was added to 80 μL of tracer dilution buffer. LIMK1/2-transfected HEK293 cells were trypsinized, centrifuged, and resuspended in 10 mL of Opti-MEM. Extracellular NanoLuc inhibitor was added at 1:10,000 dilution to the cells, after which 85 μL of cells/well were plated into flat-bottomed, white, 96-well plates. For positive control wells, 5 μL of NanoBRET Tracer #10 was added to wells without compound. For negative controls, the DMSO/tracer dilution buffer solution was added to wells without compound. For test compounds, 10 μL of diluted compounds from the intermediate plate were added in duplicate or DMSO (for control wells) at a final concentration of 0.5% DMSO in Opti-MEM. Plates were incubated at 37 °C and 5% CO2 for 2 h. […] A solution of Nano-Glo substrate was made consisting of 72 μL of Nano-Glo substrate and 11.93 mL of Opti-MEM (without phenol red) and mixed gently by inversion 5–10 times.

[4] = target: T2, LIMK2 (NanoLuc LIMK2 kinase fusion) (Homo sapiens, UniProt P53671); type: cell-based; settings: HEK293 cells, 2 h; mean ± SEM
T2 construct: host or cells: HEK293
T2 sequence (P53671 whole entry, the tested form may be a part): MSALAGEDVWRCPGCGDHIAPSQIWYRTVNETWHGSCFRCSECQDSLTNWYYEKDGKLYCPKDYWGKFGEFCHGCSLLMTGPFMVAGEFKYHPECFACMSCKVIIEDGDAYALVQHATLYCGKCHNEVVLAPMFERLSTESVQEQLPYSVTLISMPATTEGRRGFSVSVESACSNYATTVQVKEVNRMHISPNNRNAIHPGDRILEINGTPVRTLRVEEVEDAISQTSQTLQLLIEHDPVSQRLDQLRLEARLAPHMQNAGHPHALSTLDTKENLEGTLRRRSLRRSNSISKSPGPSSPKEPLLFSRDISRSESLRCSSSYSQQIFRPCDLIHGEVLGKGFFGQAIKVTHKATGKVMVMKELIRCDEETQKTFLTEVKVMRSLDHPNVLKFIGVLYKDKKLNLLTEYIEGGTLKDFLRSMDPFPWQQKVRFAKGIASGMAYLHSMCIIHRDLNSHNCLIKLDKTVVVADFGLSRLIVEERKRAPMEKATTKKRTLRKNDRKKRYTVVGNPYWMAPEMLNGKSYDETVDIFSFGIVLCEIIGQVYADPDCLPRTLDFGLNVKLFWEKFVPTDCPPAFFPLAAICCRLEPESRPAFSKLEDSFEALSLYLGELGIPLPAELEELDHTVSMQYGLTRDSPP
Protocol: as §1, §2

[5] = system: p-cofilin levels in SH-SY5Y cells; assay: cells; settings: Homo sapiens, 2 h, read-out: AlphaLISA pIC50 p-cofilin (converted)
Protocol: SH-SY5Y cells were plated into a 96-well plate at 20,000 cells/well. The next day, compounds were prepared in an 8-point, 3-fold serial dilution in DMSO and then further diluted to 20-fold in DMEM/F12 with 10% FBS, 1% antibiotics. SH-SY5Y cell media was replaced with fresh DMEM/F12 media containing 10% FBS and 1% antibiotics. Compounds were added to the SH-SY5Y cells in duplicate at a final compound concentration of 10 μM to 3 nM. LIMKi3 (10 μM) was used as a positive control and 0.5% DMSO was used as a negative control. Cells were placed in the incubator for 2 h, after which the media was removed, and the cells were lysed using 50 μL of AlphaLISA 1× lysis buffer (Perkin Elmer) containing protease inhibitor cocktail (Sigma-Aldrich, Dorset, U.K.) and Pierce phosphatase inhibitor cocktail (Thermofisher, U.K.). Cells were placed on a plate shaker at 350 rpm at RT. Ten microliters of total cell lysate was then transferred to a clean, flat-bottom, white 384-well plate. An acceptor bead solution was made consisting of reaction buffer 1, reaction buffer 2, activation buffer, and acceptor beads from the p-Cofilin SureFire Ultra assay kit (Perkin Elmer, Cat# ALSU-PCOF-A500). To each well in the assay, 5 μL of the acceptor mix was added to the wells under dim light; the plate was placed on a plate shaker for 2 min at 450 rpm, centrifuged briefly, and the plate was incubated at RT for 1 h. A donor solution, consisting of dilution buffer and donor beads, was added at 5 μL/well, mixed on a plate shaker, centrifuged briefly, and incubated at RT for 1 h. Finally, the plate was read on a Pherastar reader (BMG Labtech Ltd., Aylesbury, U.K.) using an AlphaLISA cartridge and AlphaLISA plate settings.

[6] = target: LIMK1 (LIMK1_330–637, kinase catalytic domain) (Homo sapiens, UniProt P53667); settings: for preference between LIMK1 and LIMK2: RapidFire, LIMK1 versus LIMK2, at best
LIMK1 (LIMK1_330–637, kinase catalytic domain), sequence (P53667 330-637): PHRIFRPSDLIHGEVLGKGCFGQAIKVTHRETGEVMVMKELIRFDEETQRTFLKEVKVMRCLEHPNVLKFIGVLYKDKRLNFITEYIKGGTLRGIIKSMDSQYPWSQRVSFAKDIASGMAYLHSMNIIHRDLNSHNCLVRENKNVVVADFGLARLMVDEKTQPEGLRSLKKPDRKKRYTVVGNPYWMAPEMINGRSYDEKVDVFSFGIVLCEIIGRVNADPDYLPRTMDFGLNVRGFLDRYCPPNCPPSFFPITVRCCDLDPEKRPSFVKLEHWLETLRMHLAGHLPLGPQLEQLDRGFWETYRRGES

[7] = target: PAK pLIMK1 (PAK-phosphorylated LIMK1) (Homo sapiens, UniProt P53667); assay: RapidFire mass spectrometry kinase assay, PAK-phosphorylated LIMK1; settings: 5 nM LIMK1 + 0.4 nM PAK1 kinase domain; mean ± SEM
PAK pLIMK1 (PAK-phosphorylated LIMK1), sequence (P53667 330-637): as above

Thermodynamic solubility = type: physicochemical; settings: pH 7, PBS, 24 h room temperature; average of two experiments; read-out: aq. solubility
Protocol: The samples were then centrifuged at >10,000 rpm for 10 min to pellet any remaining solid. […] To prepare the standard, an 8-point, 1:3 dilution curve was prepared in DMSO with a top concentration of 1 mM, which was then diluted to 1:100 in acetonitrile containing 2 μM of carbamazepine. Standards and samples were analyzed via LCMS/MS. The compound carbamazepine peak area ratios were calculated, and the test article solubility was determined by interpolation from the standard curve.

[8] = Microsomal stability, rat microsomes; settings: pH 7.4
Protocol: (§3) After mixing thoroughly, the T = 0 sample (40 μL) was immediately quenched into an 80 μL ice-cold methanol containing a 4 μM internal standard (carbamazepine). Three further samples were quenched in the same way at T = 3, 9, and 30 min. Samples were incubated on ice for 30 min before centrifugation at 4700 rpm for 20 min. The supernatant was analyzed via LCMS/MS, and compound/carbamazepine peak area ratios were calculated to determine the rate of substrate depletion.

[9] = Microsomal stability, human microsomes; settings: pH 7.4
Protocol: as §3

[10] = system: 468 kinases (scanMax panel); assay: Eurofins/DiscoverX scanMax panel (KINOMEscan) kinome profile; type: binding; settings: fraction of kinases bound >50%
[11] = 15 nM LIMK2 catalytic domain, 4 μM CFL1, 2 mM ATP, mean ± SEM, pIC50 greater than 8.1 treat with caution
[12] = 40 nM LIMK1 catalytic domain, 4 μM CFL1, 2 mM ATP, mean ± SEM, at least three experiments unless footnoted, pIC50 greater than 7.7 treat with caution

| Structure (SMILES) | RapidFire pIC50 LIMK2 [1, 11] | RapidFire pIC50 PAK pLIMK2 [2] | NanoBRET pIC50 LIMK1 [3] | NanoBRET pIC50 LIMK2 [4] | IC50 [5] | RapidFire pIC50 LIMK1 [6, 12] | RapidFire pIC50 PAK pLIMK1 [7] | other results |
| --- | --- | --- | --- | --- | --- | --- | --- | --- |
| CC(C)C(=O)Nc1ncc(-c2cc(C(F)F)nn2-c2c(Cl)cccc2Cl)s1 [Compound 4] |  |  |  |  |  |  |  | Vd (In vivo DMPK, IV dosing): 2 L/kg; half-life (In vivo DMPK, IV dosing; 0.2 mg/kg): 1.1 h; Papp A→B (Caco-2 permeability; human, Caco-2, A – B): 8.8 ×10⁻⁶ cm/s; Papp B→A (Caco-2 permeability; human, Caco-2, B – A): 12.4 ×10⁻⁶ cm/s |
| CCNC(=O)Nc1ncc(-c2cc(-c3c(C)cc(OC)cc3C)nc(-c3cnccn3)n2)s1 [Compound 3] | 6.87 ± 0.10 | 6.15 ± 0.04 | 6.45 ± 0.14 | 6.33 ± 0.12 | 457 nM | 7.25 ± 0.06 | 5.64 ± 0.06 |  |
| Cc1cc(Nc2cc(CN3CCOCC3)c3nc(C)c(Cc4ccc(Cl)cc4F)n3n2)n[nH]1 [Compound 13, gandotinib] | <5 | 5.22 ± 0.05 | <5 | <5 | > 10000 nM | 6.40 ± 0.03 | 5.98 ± 0.06 | efflux ratio (Caco-2 permeability): high efflux; efflux ratio (Caco-2 permeability; human, read-out: Efflux ratio): 10.2; preference between LIMK1 and LIMK2 [6]: ~10 fold |
| Cc1c[nH]c2ncnc(-c3ccc(NC(=O)N(CCO)c4ccccc4)cc3)c12 [Compound 8] |  |  |  |  |  |  |  | solubility at 24 h (Thermodynamic solubility): 28 µM (≈ 10.8 µg/mL); clearance (In vivo DMPK, IV dosing): 4.2 mL/min/kg; half-life (In vivo DMPK, IV dosing): 2.2 h; Vd (In vivo DMPK, IV dosing; 1 mg/kg): 0.5 L/kg; microsomal CLint at 0.5 h, 4 µM [8]: 18 µL/min/mg; microsomal CLint at 0.5 h, 4 µM [9]: 8 µL/min/mg |
| Cc1cc(Nc2nc(N[C@@H](C)c3ccc(F)cc3)c(C#N)cc2F)n[nH]1 [Compound 12] |  | 5.18 ± 0.03 | <5 | <5 | > 10000 nM |  | 6.52 ± 0.01 | RapidFire pIC50 LIMK2 [1]: 5.71 ± 0.14; efflux ratio (Caco-2 permeability; human, read-out: Efflux ratio): 1.01; RapidFire pIC50 LIMK1 [6]: 6.82 ± 0.06; preference between LIMK1 and LIMK2 [6]: ~10 fold |
| CCn1c(=O)c(-c2ccc(Cl)cc2Cl)cc2cnc(Nc3ccc(N4CCNCC4)c(F)c3)nc21 [Compound 1] |  |  |  |  |  |  |  | kinome S50 ([10]; 1000 nM): 0.54 (468, 1000 nM) |
| Cn1cc(-c2[nH]c3cc(NC(=O)[C@H](N)C4CCCCC4)cc4c3c2C=NNC4=O)cn1 [Compound 16] | <5 | 5.47 ± 0.04 | 6.40 ± 0.04 | 6.56 ± 0.02 | > 10000 nM | 6.09 ± 0.07 | 6.76 ± 0.12 |  |
| CN1C(=O)[C@@H](N2CCc3c(nn(Cc4ccccc4)c3C(N)=O)C2=O)COc2cc(Cl)ccc21 [Compound 17] |  |  |  |  |  |  |  | kinome S50 ([10]; 1000 nM): 0.01 (468, 1,000 nM) |
| Cc1c[nH]c2ncnc(N3CCC(CN)(C(=O)Nc4cccc(OC(=O)N(C)C)c4)CC3)c12 [Compound 7] |  | 6.51 ± 0.04 |  | 8.17 ^d |  |  |  | solubility at 24 h (Thermodynamic solubility): 451 µM (≈ 204 µg/mL); Vd (In vivo DMPK, IV dosing): 6.4 L/kg; clearance (In vivo DMPK, IV dosing): 98.1 mL/min/kg; half-life (In vivo DMPK, IV dosing; 0.5 mg/kg): 1.3 h; kinome S50 ([10]; 300 nM): 0.13 (468, 300 nM); microsomal CLint at 0.5 h, 4 µM [8]: 50 µL/min/mg; microsomal CLint at 0.5 h, 4 µM [9]: 3 µL/min/mg |
| CCc1cccc(CC)c1NC(=O)N1Cc2n[nH]c(NC(=O)c3ccc(N4CCN(C)CC4)cc3)c2C1 [Compound 11] | 5.10 ± 0.04 | <5 | <5 | <5 | > 10000 nM | 6.39 ± 0.03 | 6.24 ± 0.04 | efflux ratio (Caco-2 permeability): high efflux; efflux ratio (Caco-2 permeability; human, read-out: Efflux ratio): 279; preference between LIMK1 and LIMK2 [6]: ~10 fold |
| O=C(Nc1ncc(-c2cc(C(F)F)nn2-c2c(Cl)cccc2Cl)s1)C1CC1 [Compound 2] | 7.52 ± 0.04 | 6.56 ± 0.06 | 7.09 ± 0.08 | 7.79 ± 0.02 | 39.8 nM | 7.75 ± 0.04 | 7.00 ± 0.03 |  |
| Cc1c[nH]c2ncnc(N3CCN(C(=O)Nc4cccc(OC(=O)N(C)C)c4)[C@@H](C)C3)c12 [Compound 6] |  | 7.68 ± 0.07 | 8.28 ± 0.08 | 8.61 ± 0.04 | 3.02 nM |  | 7.68 ± 0.04 | RapidFire pIC50 LIMK2 [1]: 8.74 ± 0.12; RapidFire pIC50 LIMK1 [6]: 8.70 ± 0.07 |

Source: publication PMC9619402 (Journal of Medicinal Chemistry, 2022)
